Reference: patent publication US20020045664A1, “Estrogen mimetics lacking reproductive tract effects” (The University of Georgia Research Foundation, Inc, priority 1999, published 2002)
“Also recorded” adds a separate entry of the source. Marks after values point to notes of the source that are not given here.

Experiments:
MCF-7 cells = details: MCF-7 cell proliferation assay; cited from earlier work
[1] = test system: MCF 7 human breast cancer cells; details: estradiol-stimulated MCF-7 proliferation; cited from earlier work
OVX rat [2] = assay: Serum rat osteocalcin radioimmunoassay in OVX rats; format: in vivo
Protocol: (§1) In the first experiment 50 female Sprague-Dawley rats that were approximately 90 days of age and weighed an average of 240 g at the beginning of the study were used. Animal care and handling was carried out solely at the AAALAC accredited animal facility at the University of Georgia College of Pharmacy, in accordance with a protocol approved by the University of Georgia Institutional Animal Care and Use Committee. On the day of surgery (day 0), all rats were anesthetized with an intraperitoneal (i.p.) injection of ketamine hydrochloride and xylazine at doses of 50 mg/kg body weight and 10 mg/kg body weight, respectively. Ten rats were sham-operated during which the ovaries were exteriorized but replaced intact. Bilateral ovariectomies were performed in the remaining 40 rats from a dorsal approach. Each rat was housed individually at 25° C. with a light/dark cycle of 13 hours/11 hours. Food (Teklad 22/5 Rodent Diet, Madison, Wis.), with calcium and phosphate contents of 0.95% and 0.67%, respectively, was available ad libitum to all animals.
(§2) Sham-operated rats (N=10) and one of the four groups of OVX rats (N=10) were injected subcutaneously (s.c.) with vehicle (5% benzyl alcohol in corn oil) 5 days per week for 5 weeks. […] The above treatments were initiated on the first day after surgery. The dose level of 17β-estradiol was believed to be optimal based on earlier studies (T. Wronski et al., Endocrinology 123:681-686 (1988)). […] Each rat was injected s.c. with demeclocycline and calcein (Sigma Chemical Co., St. Louis, Mo.) at a dose of 15 mg/kg body weight on the 10th and 3rd days before sacrifice, respectively, to label sites of bone formation.
(§3) A second experiment, using 40 animals, was performed in exactly the same manner described above, in which effects of the s.c. administration of 3.7 mg/kg/day of 4HTA to one group of OVX animals was compared to the effects of vehicle or 17β-estradiol in three other groups (vehicle treated sham OVX, vehicle treated OVX, and 17β-estradiol-treated OVX rats).
(§4) All rats were sacrificed by exsanguination from the abdominal aorta under ketamine/xylazine anesthesia. Failure to detect ovarian tissue and observation of marked atrophy of the uterine horns confirmed the success of ovariectomy. The body weight of each animal was recorded, as was uterine wet weight. Blood samples were allowed to coagulate at room temperature (2 hours) in a Vacutainer tube. Serum was obtained by centrifugation for 10 minutes at 3000 rpm, and samples were stored at −80° C. until analyzed. The right tibia was removed at necropsy, dissected free of muscle, and cut in half cross-sectionally with a hand-held saw (Dremel Moto Tool, Racine, Wis.). The bone samples were then placed in 10% phosphate-buffered formalin for 24 hours for tissue fixation.
Materials, as well as standard protocols for their use, were obtained from Biomedical Technologies, Inc., Stoughton Mass. Serum samples from each member of the different treatment groups were diluted 1:20. Duplicate aliquots (100 μL) of each diluted sample were incubated in an orbital shaker at 80 rpm ([…]) for 16 hours with the first antibody and nonimmune serum in RIA buffer (final volume 0.5 mL). An aliquot of [^125I]-osteocalcin (10 nCi, 0.034 ng) in 100 μL of RIA buffer was then added to each tube and incubation was continued for 24 hours. Then the second (precipitating) antibody was added in 1 mL of modified buffer, and incubation was continued for 4 hours. Tubes were then centrifuged at 1500×g for 15 minutes. Pellets were washed with cold distilled water and recentrifuged as before. Supernatant was decanted and radioactivity in pellets was determined using a gamma counter. Serum osteocalcin levels were determined by comparing the sample values (cpm) to the linear region of a standard curve of cpm/pellet vs. the amount of osteocalcin present, obtained from incubations to which known amounts (0-0.35 ng) of osteocalcin had been added. […]

OVX rat [3] = assay: OVX rat: body weight and uterine wet weight; format: in vivo
Protocol: as §1, §2, §3, §4

estrogen receptor = estrogen receptor (Homo sapiens, UniProt P03372); details: cited from earlier work
Chain of estrogen receptor (P03372 whole entry): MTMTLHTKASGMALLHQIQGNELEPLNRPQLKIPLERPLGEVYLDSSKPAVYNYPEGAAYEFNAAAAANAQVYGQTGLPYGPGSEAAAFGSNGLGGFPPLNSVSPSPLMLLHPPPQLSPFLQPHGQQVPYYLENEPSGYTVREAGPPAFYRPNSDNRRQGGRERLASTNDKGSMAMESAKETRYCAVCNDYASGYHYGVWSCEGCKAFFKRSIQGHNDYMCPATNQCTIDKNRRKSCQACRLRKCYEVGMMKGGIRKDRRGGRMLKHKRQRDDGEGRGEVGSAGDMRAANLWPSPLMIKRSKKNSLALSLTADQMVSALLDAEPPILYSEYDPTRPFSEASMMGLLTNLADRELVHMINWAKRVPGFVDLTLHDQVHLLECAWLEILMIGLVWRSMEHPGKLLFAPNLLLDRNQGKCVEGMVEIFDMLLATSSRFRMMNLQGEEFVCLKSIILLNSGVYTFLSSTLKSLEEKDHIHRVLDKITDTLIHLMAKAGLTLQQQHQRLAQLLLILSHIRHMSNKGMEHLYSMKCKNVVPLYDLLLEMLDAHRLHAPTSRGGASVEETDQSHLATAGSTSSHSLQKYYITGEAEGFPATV

CCC(=C(c1ccc(O)cc1)c1ccc(OCC(=O)O)cc1)c1ccccc1 [4HTA, (E,Z)-2-{4-[1-(p-hydroxyphenyl)-2-phenyl]-1-butenyl}phenoxyacetic acid]
maximal growth-stimulatory effect, as a percent of that of estradiol (MCF-7 cells): 79% | estrogen antagonist activity in growth inhibition assay in the presence of estrogen [1]: weak antagonist potency; also recorded: weakly inhibits | increase in serum OC (OVX rat [2]; OVX animals, with respect to OVX vehicle controls): did not differ | Relative Serum OC Level, mean (SD) (OVX rat [2]; experiment 2, relative to OVX-17β-estradiol treated group (=100)): 188 (42)^c | greater uterine weight compared to vehicle-treated OVX animals (OVX rat [3]; 17β-estradiol: average of both experiments, 4HTA: vs respective OVX vehicle controls): 25% | Body Weight, mean (SD) (OVX rat [3]; experiment 2, OVX rats, s.c. 5 days/week for 5 weeks, 17β-estradiol 10 μg/kg/day, 4HTA 3.7 mg/kg/day): 305 (12)^b,c g | increase in overall body weight after ovariectomy (OVX rat [3]; five-week course of the two studies, subcutaneous five days per week): not observed | relative estrogen receptor binding affinity (RBA) (estrogen receptor): 20% of estradiol binding affinity
